Columns and labels:
Assay type in all cases: biochemical
[1] = tested on: Liver acetone powder from Turtle; assay: Hydrolysis of ketoprofen methyl ester by turtle liver acetone powder; conditions: Turtle powder 10 mg, 50 mg ester, pH 7.0, room temperature, 24 hours
Experimental: (§1) A solution of 50 mg of ketoprofen methyl ester in 0.2 ml of ethanol was added to 10 mg of each of liver acetone powder from various animal sources (described in Table 1) in 5 ml of 0.1M potassium phosphate buffer (pH 7.0) After shaking at room temperature for 24 hours, the reaction mixtures were acidified to pH 2.0 with 6(N) HCl and extracted with 10 ml of ethyl acetate. A portion of the ethyl acetate extract was analyzed by HPLC on a Partisil 5 ODS-3 RAC column (9.4 mm×100 mm, Whatman) using a mixture of methanol and 10 mM ammonium dihydrogen phospate (9:1) and monitored by UV at 254 nm to determine the percentages of acid produced in the reaction.

[2] = tested on: Liver acetone powder from Pigeon; assay: Hydrolysis of ketoprofen methyl ester by pigeon liver acetone powder
Experimental: as §1
(§2) To determine the percentage of R- and S-acid, a portion of the ethyl acetate extract was converted to the amide derivative of the acid produced with R(+)-1-phenylethylamine as follows. The ethyl acetate extract (5 ml) was dried over sodium sulfate, filtered and cooled to 0° C. To the cold solution was added 0.2 ml of N-methylmorpholine followed by 0.2 ml of isobutyl chloroformate. After gentle shaking at 0° C. for 10 minutes, 0.2 ml of R(+)-1-phenylethylamine was added and the shaking was continued at 0° C. for 5 minutes and at room temperature for another 5 minutes. The reaction mixture was washed successively with water (5 ml), 1(N) HCl (5 ml), and water (5 ml) to provide the amide derivative in ethyl acetate solution. The ethyl acetate solution of the amide derivative was then analyzed by HPLC on the same column and same solvent mixture but with a different composition, i.e., a ratio of 6:4, and monitored by UV to determine the percentages of R- acid and S-acids produced by hydrolysis. The enantiomeric excess (EE) is defined as the difference in percent between the percent R- acid and the percent S-acid, the higher enantiomer being reported in the parenthesis in Table I.

[3] = tested on: Liver acetone powder from Horse; assay: Hydrolysis of ketoprofen methyl ester by horse liver acetone powder
Experimental: as §1, §2

[4] = tested on: Liver acetone powder from Bovine; assay: Hydrolysis of ketoprofen esters by bovine liver acetone powder
Experimental: as §1, §2
(§3) Several esters of ketoprofen (0.2 millimole) with various alkyl groups of varying chain length were hydrolyzed using liver acetone powders from bovine, calf and dog by the procedure described in Example 1. The reaction mixtures were analyzed by the same procedures as described in Example 1 and the results obtained are summarized in Table II.

[5] = tested on: Liver acetone powder from Lemon Shark; assay: Hydrolysis of ketoprofen methyl ester by lemon shark liver acetone powder; conditions: Lemon Shark powder 10 mg, 50 mg ester, pH 7.0, room temperature, 24 hours
Experimental: as §1

[6] = tested on: Liver acetone powder from Dog; assay: Hydrolysis of ketoprofen esters by dog liver acetone powder
Experimental: as §1, §2, §3

[7] = tested on: Liver acetone powder from Sheep; assay: Hydrolysis of ketoprofen methyl ester by sheep liver acetone powder
Experimental: as §1, §2

[8] = tested on: Liver acetone powder from Calf; assay: Hydrolysis of ketoprofen esters by calf liver acetone powder
Experimental: as §1, §2, §3

[9] = tested on: Liver acetone powder from Seal; assay: Hydrolysis of ketoprofen methyl ester by seal liver acetone powder
Experimental: as §1, §2

[10] = tested on: Liver acetone powder from Trout; assay: Hydrolysis of ketoprofen methyl ester by trout liver acetone powder; conditions: Trout powder 10 mg, 50 mg ester, pH 7.0, room temperature, 24 hours
Experimental: as §1

[11] = tested on: Liver acetone powder from Rat; assay: Hydrolysis of ketoprofen methyl ester by rat liver acetone powder
Experimental: as §1, §2

[12] = tested on: Liver acetone powder from Goat; assay: Hydrolysis of ketoprofen methyl ester by goat liver acetone powder
Experimental: as §1, §2

[13] = tested on: Liver acetone powder from Guinea Pig; assay: Hydrolysis of ketoprofen methyl ester by guinea pig liver acetone powder; conditions: Guinea Pig powder 10 mg, 50 mg ester, pH 7.0, room temperature, 24 hours
Experimental: as §1

[14] = tested on: Liver acetone powder from Eel**; assay: Hydrolysis of ketoprofen methyl ester by eel (Electrophorous electricus) liver acetone powder; conditions: Eel (Electrophorous electricus) powder 10 mg, 50 mg ester, pH 7.0, room temperature, 24 hours
Experimental: as §1

[15] = tested on: Liver acetone powder from Rabbit; assay: Hydrolysis of ketoprofen methyl ester by rabbit liver acetone powder
Experimental: as §1, §2

[16] = tested on: Liver acetone powder from Porcine; assay: Hydrolysis of ketoprofen methyl ester by porcine liver acetone powder; conditions: Porcine powder 10 mg, 50 mg ester, pH 7.0, room temperature, 24 hours
Experimental: as §1

[17] = tested on: Liver acetone powder from Chicken; assay: Hydrolysis of ketoprofen methyl ester by chicken liver acetone powder
Experimental: as §1, §2

[18] = tested on: Liver acetone powder from Lungfish; assay: Hydrolysis of ketoprofen methyl ester by lungfish liver acetone powder; conditions: Lungfish powder 10 mg, 50 mg ester, pH 7.0, room temperature, 24 hours
Experimental: as §1

[19] = tested on: Liver acetone powder from Eel*; assay: Hydrolysis of ketoprofen methyl ester by eel (Anguilla anguilla) liver acetone powder; conditions: Eel (Anguilla anguilla) powder 10 mg, 50 mg ester, pH 7.0, room temperature, 24 hours
Experimental: as §1

[20] = tested on: Liver acetone powder from Cat; assay: Hydrolysis of ketoprofen methyl ester by cat liver acetone powder
Experimental: as §1, §2

[21] = tested on: Liver acetone powder from Salmon; assay: Hydrolysis of ketoprofen methyl ester by salmon liver acetone powder; conditions: Salmon powder 10 mg, 50 mg ester, pH 7.0, room temperature, 24 hours
Experimental: as §1

[22] = tested on: Liver acetone powder from Mouse; assay: Hydrolysis of ketoprofen methyl ester by mouse liver acetone powder
Experimental: as §1, §2

[23] = Pigeon powder 10 mg, 50 mg ester, pH 7.0, room temperature, 24 hours
[24] = Horse powder 10 mg, 50 mg ester, pH 7.0, room temperature, 24 hours
[25] = Bovine powder 10 mg, 50 mg ester, pH 7.0, room temperature, 24 hours
[26] = Bovine powder, 0.2 millimole ester, procedure of Example 1
[27] = Dog powder 10 mg, 50 mg ester, pH 7.0, room temperature, 24 hours
[28] = Dog powder, 0.2 millimole ester, procedure of Example 1
[29] = Sheep powder 10 mg, 50 mg ester, pH 7.0, room temperature, 24 hours
[30] = Calf powder 10 mg, 50 mg ester, pH 7.0, room temperature, 24 hours
[31] = Calf powder, 0.2 millimole ester, procedure of Example 1
[32] = Seal powder 10 mg, 50 mg ester, pH 7.0, room temperature, 24 hours
[33] = Rat powder 10 mg, 50 mg ester, pH 7.0, room temperature, 24 hours
[34] = Goat powder 10 mg, 50 mg ester, pH 7.0, room temperature, 24 hours
[35] = Rabbit powder 10 mg, 50 mg ester, pH 7.0, room temperature, 24 hours
[36] = Chicken powder 10 mg, 50 mg ester, pH 7.0, room temperature, 24 hours
[37] = Cat powder 10 mg, 50 mg ester, pH 7.0, room temperature, 24 hours
[38] = Mouse powder 10 mg, 50 mg ester, pH 7.0, room temperature, 24 hours

## COC(=O)C(C)c1cccc(C(=O)c2ccccc2)c1 (stereo not shown) [Methyl Ester of Ketoprofen, ketoprofen methyl ester]
[1]
  Percentage of acid: 0.6%
[2]; [23]
  Percentage of Acid R-acid: 66.7%
  Percentage of Acid S-acid: 33.3%
  Percentage of acid: 18.0%
[2]; Pigeon powder, Table 1, higher enantiomer (R)
  Percentage EE of acid (R or S): 33.4%
[3]; [24]
  Percentage of Acid R-acid: 62.7%
  Percentage of Acid S-acid: 37.3%
  Percentage of acid: 24.1%
[3]; Horse powder, Table 1, higher enantiomer (R)
  Percentage EE of acid (R or S): 25.4%
[4]; [25]
  Percentage of Acid R-acid: 71.2%
  Percentage of Acid S-acid: 28.8%
  Percentage of acid: 4.3%
[4]; [26]
  Acid Produced (%): 4.4%
  EE(%) of R-Acid: 47.2%
  Percent of Acid R-Acid: 73.6%
  Percent of Acid S-Acid: 26.4%
[4]; Bovine powder, Table 1, higher enantiomer (R)
  Percentage EE of acid (R or S): 42.4%
[5]
  Percentage of acid: 0.6%
[6]; [27]
  Percentage of Acid R-acid: 87.1%
  Percentage of Acid S-acid: 12.9%
  Percentage of acid: 8.0%
[6]; [28]
  Acid Produced (%): 6.2%
  EE(%) of R-Acid: 76.6%
  Percent of Acid R-Acid: 88.3%
  Percent of Acid S-Acid: 11.7%
[6]; Dog powder, Table 1, higher enantiomer (R)
  Percentage EE of acid (R or S): 74.2%
[7]; [29]
  Percentage of Acid R-acid: 46.5%
  Percentage of Acid S-acid: 53.5%
  Percentage of acid: 18.1%
[7]; Sheep powder, Table 1, higher enantiomer (S)
  Percentage EE of acid (R or S): 7.0%
[8]; [30]
  Percentage of Acid R-acid: 71.6%
  Percentage of Acid S-acid: 28.4%
  Percentage of acid: 5.7%
[8]; [31]
  Acid Produced (%): 7.3%
  EE(%) of R-Acid: 45.6%
  Percent of Acid R-Acid: 72.8%
  Percent of Acid S-Acid: 27.2%
[8]; Calf powder, Table 1, higher enantiomer (R)
  Percentage EE of acid (R or S): 43.2%
[9]; [32]
  Percentage of Acid R-acid: 48.9%
  Percentage of Acid S-acid: 51.1%
  Percentage of acid: 14.3%
[9]; Seal powder, Table 1, higher enantiomer (S)
  Percentage EE of acid (R or S): 2.2%
[10]
  Percentage of acid: 0.7%
[11]; [33]
  Percentage of Acid R-acid: 52.7%
  Percentage of Acid S-acid: 47.3%
  Percentage of acid: 7.5%
[11]; Rat powder, Table 1, higher enantiomer (R)
  Percentage EE of acid (R or S): 5.4%
[12]; [34]
  Percentage of Acid R-acid: 42.3%
  Percentage of Acid S-acid: 57.7%
  Percentage of acid: 15.5%
[12]; Goat powder, Table 1, higher enantiomer (S)
  Percentage EE of acid (R or S): 15.4%
[13]
  Percentage of acid: 0.8%
[14]
  Percentage of acid: 1.1%
[15]; [35]
  Percentage of Acid R-acid: 46.1%
  Percentage of Acid S-acid: 53.9%
  Percentage of acid: 54.9%
[15]; Rabbit powder, Table 1, higher enantiomer (S)
  Percentage EE of acid (R or S): 7.8%
[16]
  Percentage of acid: 0.9%
[17]; [36]
  Percentage of Acid R-acid: 52.7%
  Percentage of Acid S-acid: 47.3%
  Percentage of acid: 8.1%
[17]; Chicken powder, Table 1, higher enantiomer (R)
  Percentage EE of acid (R or S): 5.4%
[18]
  Percentage of acid: 3.2%
[19]
  Percentage of acid: 3.0%
[20]; [37]
  Percentage of Acid R-acid: 64.1%
  Percentage of Acid S-acid: 35.9%
  Percentage of acid: 7.2%
[20]; Cat powder, Table 1, higher enantiomer (R)
  Percentage EE of acid (R or S): 28.2%
[21]
  Percentage of acid: 0.6%
[22]; [38]
  Percentage of Acid R-acid: 49.0%
  Percentage of Acid S-acid: 51.0%
  Percentage of acid: 9.4%
[22]; Mouse powder, Table 1, higher enantiomer (R)
  Percentage EE of acid (R or S): 2.0%

## CCOC(=O)C(C)c1cccc(C(=O)c2ccccc2)c1 (stereo not shown) [C-2]
[4]; [26]
  EE(%) of R-Acid: 40.6%
  Percent of Acid R-Acid: 70.3%
  Percent of Acid S-Acid: 29.7%
[6]; [28]
  EE(%) of R-Acid: 65.0%
  Percent of Acid R-Acid: 82.5%
  Percent of Acid S-Acid: 17.5%
[8]; [31]
  EE(%) of R-Acid: 39.2%
  Percent of Acid R-Acid: 69.6%
  Percent of Acid S-Acid: 30.4%

## CCCCCCCCOC(=O)C(C)c1cccc(C(=O)c2ccccc2)c1 (stereo not shown) [C-8]
[4]; [26]
  EE(%) of R-Acid: 55.8%
  Percent of Acid R-Acid: 77.9%
  Percent of Acid S-Acid: 22.1%
[6]; [28]
  EE(%) of R-Acid: 41.4%
  Percent of Acid R-Acid: 70.7%
  Percent of Acid S-Acid: 29.3%
[8]; [31]
  EE(%) of R-Acid: 24.2%
  Percent of Acid R-Acid: 62.1%
  Percent of Acid S-Acid: 37.9%

## CCCCOC(=O)C(C)c1cccc(C(=O)c2ccccc2)c1 (stereo not shown) [C-4]
[4]; [26]
  EE(%) of R-Acid: 33.4%
  Percent of Acid R-Acid: 66.7%
  Percent of Acid S-Acid: 33.3%
[6]; [28]
  EE(%) of R-Acid: 68.8%
  Percent of Acid R-Acid: 84.4%
  Percent of Acid S-Acid: 15.6%
[8]; [31]
  EE(%) of R-Acid: 38.2%
  Percent of Acid R-Acid: 65.6%
  Percent of Acid S-Acid: 34.4%

## CCCOC(=O)C(C)c1cccc(C(=O)c2ccccc2)c1 (stereo not shown) [C-3]
[4]; [26]
  EE(%) of R-Acid: 41.4%
  Percent of Acid R-Acid: 70.7%
  Percent of Acid S-Acid: 29.3%
[6]; [28]
  EE(%) of R-Acid: 68.2%
  Percent of Acid R-Acid: 84.1%
  Percent of Acid S-Acid: 15.9%
[8]; [31]
  EE(%) of R-Acid: 38.2%
  Percent of Acid R-Acid: 69.1%
  Percent of Acid S-Acid: 30.9%

## CCCCCCOC(=O)C(C)c1cccc(C(=O)c2ccccc2)c1 (stereo not shown) [C-6]
[4]; [26]
  EE(%) of R-Acid: 45.4%
  Percent of Acid R-Acid: 72.7%
  Percent of Acid S-Acid: 27.3%
[6]; [28]
  EE(%) of R-Acid: 35.8%
  Percent of Acid R-Acid: 67.9%
  Percent of Acid S-Acid: 32.1%
[8]; [31]
  EE(%) of R-Acid: 42.0%
  Percent of Acid R-Acid: 71.0%
  Percent of Acid S-Acid: 29.0%
